We go through twelve compounds from patent US4556560A, “Methods for the treatment and prophylaxis of diaper rash and diaper dermatitis” (The Procter & Gamble Company, priority 1983, dated 1985).

The subject of data set [1] is primary skin irritation caused by prolonged contact of a urine/feces mixture under occluded conditions. Kind of data set: Hairless mouse patch test: feces/urea homogenate patched with lipase-inhibiting agent solution (Examples I-V). The format is in vivo, hairless mice. From the text:
(§1) This method may be used to determine the utility and effect of lipase-inhibiting agents, or compositions containing these agents, on primary skin irritation caused by prolonged contact of a urine/feces mixture under occluded conditions.
(§2) Male, hairless mice at 8-12 weeks of age are used for the study. The animals are housed individually in plastic shoe box cages for the experiments, and fed Purina® Rodent Laboratory Chow and tap water ad libitum. Mice are assigned numbers during each study which are posted on each cage.
(§3) The mice are cared for, and the room conditions maintained following acceptable animal study conditions.
(§4) Patch treatment compositions are prepared by taking the fecal material to be tested and mixing it with a 2% urea solution at a weight:weight ratio of 1:4 feces:urea. 0.1 ml of the lipase-inhibiting agent solution or composition of the desired concentration is patched along with 0.375 ml of the urine/feces mixture. Patches for the mice are prepared by saturating an absorbent material (such as cotton) with the feces/urine suspension, placing it on the skin and covering it with an impermeable material. For example, this may be done by cutting away the adhesive border from a 37×20 mm Webril pad. The Webril pad will then be cut into quarters to obtain 1 cm^2 patches. Each patch will be saturated with 0.1 ml of the lipase-inhibiting agent solution and 0.375 ml of the urine/feces mixture. The control patch is simply 0.375 ml of the urine/feces mixture. Prior to application of test or control patches, each mouse is anesthetized by placement into a chamber containing ether. The test patch is then placed midline on the mouse back, towards the shoulder, and covered with Blenderm® (3M) tape in order to occlude the patch site. The mouse is next wrapped with Scanpor® tape (Norgeplaster A/S) to secure the patch. After 24 hrs., the initial patch is removed and a fresh patch of test substance or a fresh control is applied, as described above. After 24 hrs., the second patch is removed, thus giving a total occluded patch time of 48 hrs.
(§5) Approximately 1 hr. after removal of the second patch, the test site skin condition is evaluated using the grading scales outlined in the following tables:
(§6) Each animal is examined by two graders, at least one of whom is blind as to the treatments applied. Both graders' scores should be calculated for each of the above categories, as well as a primary Irritation Index equalling the sum of scores for each category.
(§7) In Examples I-V, fecal material is mixed with a 2% urea solution at a weight:weight ratio of 1:4 feces:urea, and this homogenate is patched as described above in the Hairless Mouse model with 0.375 ml of this homogenate. The pure homogenate is patched as the control. Where a specific concentration of lipase-inhibiting agent is expressed, the feces/urea homogenate is patched in combination with 0.1 ml of a solution of the described lipase-inhibiting agent solution.

Data set [2] deals with lipase. Kind of data set: Lipase activity of stool-free, urine-free pure lipase composition with lipase-inhibiting agent (Examples VI, VII). The format is biochemical. The arrangement: LIPASE ACTIVITY: unit not given here. As to conditions: for % REDUCTION LIPASE ACTIVITY / LIPASE ACTIVITY: pure lipase composition; for inhibition of lipase: inability to provide the critical level of free metal ion Zn++. As for the experimental part:
(§8) For example, the method of commerce available from Harleco® diagnostics utilizes the activity of lipase, i.e., the digestion of triglycerides to diglycerides and monoglycerides, glycerol and free fatty acids. After this digestion is allowed to proceed at the optimal buffered pH, the turbidity is measured spectrophotometrically at 400 nanometers.
In Examples VI and VII, a stool-free and urine-free pure lipase composition of the expressed activity is patched in the Hairless Mouse model as described above. This is the Control. This lipase composition is patched in combination with 0.1 ml of the lipase-inhibiting agent solution at the concentration expressed.
In this Example, a non-stool, no-urine pure lipase composition is patched in the hairless mouse model, and then in combination with a lipase-inhibiting agent at the indicated concentrations.

The test system of data set [3] is lipase. As to the kind of experiment: Relative lipase activity of the feces/urea patch with lipase-inhibiting agent (Examples I, II, IV). The format is biochemical. As for the experimental part: as §8, §7
Data set [4] relates to lipase-related skin irritation. Kind of data set: Hairless mouse patch test with pure lipase composition (Example VII). As to conditions: 100 mM (ZnO, ZnCO3, Zn undecylenate patched as suspensions). The format is in vivo, hairless mice.
Excerpt: as §1, §2, §3, §4, §5, §6
In Examples VI and VII, a stool-free and urine-free pure lipase composition of the expressed activity is patched in the Hairless Mouse model as described above. This is the Control. This lipase composition is patched in combination with 0.1 ml of the lipase-inhibiting agent solution at the concentration expressed. […]

The conditions of data set [5]: background statement; cited from earlier work.
The conditions of data set [6]: footnote to Example VII.
Where [7] appears, read: Example III, 100 mM, control 4.95 ± 0.45 (control lipase activity 100,000).
[8] abbreviates: Example VI, 50 mM, lipase control 40,320.
The mark [9] stands for this setting: Example VI, 100 mM, lipase control 40,320.
The mark [10] stands for this setting: Example I, 10 mM agent solution, control 6250.
[11] abbreviates: Example I, 25 mM agent solution, control 6250.
The mark [12] stands for this setting: Example I, 50 mM agent solution, control 6250.
[13] abbreviates: Example I, 100 mM agent solution, control 6250.
Where [14] appears, read: Example I, 10 mM, 0.1 ml with 0.375 ml feces/urea homogenate, 48 hrs occluded, control 7.20 ± 0.75.
The mark [15] stands for this setting: Example I, 25 mM, 0.1 ml with 0.375 ml feces/urea homogenate, 48 hrs occluded, control 7.20 ± 0.75.
[16] abbreviates: Example I, 50 mM, 0.1 ml with 0.375 ml feces/urea homogenate, 48 hrs occluded, control 7.20 ± 0.75.
Setting [17] is: Example I, 100 mM, 0.1 ml with 0.375 ml feces/urea homogenate, 48 hrs occluded, control 7.20 ± 0.75.
Setting [18] is: Example IV, 10 mM, control 127,500.
[19] abbreviates: Example IV, 25 mM, control 127,500.
The mark [20] stands for this setting: Example IV, 50 mM, control 127,500.
Setting [21] is: Example IV, 100 mM, control 127,500.
The mark [22] stands for this setting: Example V, 100 mM, control 4.45 ± 0.17.
Setting [23] is: Example VII, 100 mM (ZnO, ZnCO3, Zn undecylenate patched as suspensions), control 36,750.

As for `[Ca+2].[Cl-].[Cl-]` [CaCl2, reference compound], the “IRRITATION INDEX” value in data set [1] (setting [7]) amounted to 3.55 ± 1.10.

With `[Cl][Co][Cl]` [CoCl2, cobalt chloride], the “% REDUCTION LIPASE ACTIVITY” value worked out at 41% in the data set on lipase [2] (Example VI, 50 mM) and 81% in the data set with lipase [2] (Example VI, 100 mM). The “LIPASE ACTIVITY” value is given as 23,750 in the data set with lipase [2] (setting [8]) and 7,750 in the data set with lipase [2] (setting [9]).

As to `O=S(=O)([O-])[O-].[Cu+2]` [CuSO4, copper sulfate], the “% REDUCTION LIPASE ACTIVITY” value with lipase [2] (Example VI, 50 mM) is 54%; with lipase [2] (Example VI, 100 mM), 59%. Besides, the “LIPASE ACTIVITY” value in the data set on lipase [2] (setting [8]) was 18,500; with lipase [2] (setting [9]), 16,500.

As for `O.O.O.O.O.O=S(=O)([O-])[O-].[Cu+2]` [CuSO4.5H2 O, copper sulfate pentahydrate], the “RELATIVE LIPASE ACTIVITY” value was determined as 4750 in the data set on lipase [3] (setting [10]), 2250 in the data set with lipase [3] (setting [11]), 750 in the data set with lipase [3] (setting [12]) and 0 in the data set on lipase [3] (setting [13]). Moreover, the “IRRITATION INDEX” value is reported as 6.75 ± 1.42 in data set [1] (setting [14]), 5.35 ± 2.93 in data set [1] (setting [15]), 3.50 ± 3.08 in data set [1] (setting [16]) and 5.50 ± 1.05 in data set [1] (setting [17]).

`O.O.O.O.O.O.[Cl-].[Cl-].[Cl-].[Fe+3]` [FeCl3.6H2 O, iron(III)chloride hexahydrate]: the “RELATIVE LIPASE ACTIVITY” value with lipase [3] (setting [18]) is given as 177,500; in the data set with lipase [3] (setting [19]), 128,750; in the data set with lipase [3] (setting [20]), 111,350; with lipase [3] (setting [21]), 6250. Besides, the “% REDUCTION LIPASE ACTIVITY” value with lipase [2] (Example VI, 50 mM) came out at 99%; with lipase [2] (Example VI, 100 mM) it was 100%. In addition, the “LIPASE ACTIVITY” value in the data set with lipase [2] (setting [8]) was found to be 500; with lipase [2] (setting [9]), 0.

As for `[Cl][La]([Cl])[Cl]` [LaCl3, lanthanum chloride], the “IRRITATION INDEX” value in data set [1] (setting [7]) turned out to be 0 ± 0.

Consider `[Cl][Sn][Cl]` [SnCl2, tin(II)chloride], for which the “IRRITATION INDEX” value in data set [1] (setting [22]) was determined as 0.50 ± 0.16. For the same compound, the “% REDUCTION LIPASE ACTIVITY” value in the data set with lipase [2] (Example VI, 50 mM) is 93%; in the data set with lipase [2] (Example VI, 100 mM), 97%. The “LIPASE ACTIVITY” value was 3,000 with lipase [2] (setting [8]) and 1,250 in the data set with lipase [2] (setting [9]).

For the compound `C=CCCCCCCCCC(=O)[O-].C=CCCCCCCCCC(=O)[O-].[Zn+2]` [Zn undecylenate], in data set [4], the “% REDUCTION IN IRRITATION INDEX” value was determined as 73%. Further, the “LIPASE ACTIVITY” value in the data set on lipase [2] (setting [23]) is 10,080.

With `O=C([O-])[O-].[Zn+2]` [ZnCO3, zinc carbonate, reference compound], the “% REDUCTION IN […]” value in data set [4] is on record as 5%. Moreover, in the data set with lipase [2] (setting [23]), the “LIPASE ACTIVITY” value is reported as 35,000. Moreover, in the data set on lipase [2], the inhibition of lipase result is given as “ineffective”.

In the case of `[Cl-].[Cl-].[Zn+2]` [ZnCl2, zinc chloride], the “RELATIVE LIPASE ACTIVITY” value with lipase [3] (setting [10]) amounted to 5000; with lipase [3] (setting [11]), 0; in the data set on lipase [3] (setting [12]) it was 0; with lipase [3] (setting [13]), 0; in the data set on lipase [3] (Example II, 20 mM, control 6000) it was 500; in the data set on lipase [3] (Example II, 30 mM, control 6000) it was 1250. Further, the “RELATIVE LIPASE ACTIVITY” value was 0 in the data set with lipase [3] (Example II, 40 mM, control 6000); 0 in the data set with lipase [3] (Example II, 50 mM, control 6000); 0 with lipase [3] (Example II, 60 mM, control 6000); 0 in the data set on lipase [3] (Example II, 70 mM, control 6000); 72,500 with lipase [3] (setting [18]); 0 in the data set with lipase [3] (setting [19]). The “RELATIVE LIPASE ACTIVITY” value in the data set on lipase [3] (setting [20]) and in the data set on lipase [3] (setting [21]) was 0 in each case. The “IRRITATION INDEX” value in data set [1] (setting [14]) worked out at 6.05 ± 1.23; in data set [1] (setting [15]) it was 4.95 ± 1.36; in data set [1] (setting [16]), 0.80 ± 1.01; in data set [1] (setting [17]) it was 1.15 ± 0.97; in data set [1] (Example II, 20 mM, control 6.67 ± 0.94) it was 3.50 ± 2.44; in data set [1] (Example II, 30 mM, control 6.67 ± 0.94), 4.87 ± 1.37. In addition, the “IRRITATION INDEX” value in data set [1] (Example II, 40 mM, control 6.67 ± 0.94) stood at 2.62 ± 1.86; in data set [1] (Example II, 50 mM, control 6.67 ± 0.94), 2.54 ± 1.78; in data set [1] (Example II, 60 mM, control 6.67 ± 0.94) it was 1.42 ± 1.62; in data set [1] (Example II, 70 mM, control 6.67 ± 0.94), 1.17 ± 1.01; in data set [1] (setting [7]) it was 0.55 ± 1.23; in data set [1] (Example IV, 10 mM, control 6.15 ± 1.08), 5.55 ± 0.95. The “IRRITATION INDEX” value in data set [1] (Example IV, 25 mM, control 6.15 ± 1.08) stood at 0.50 ± 0.82; in data set [1] (Example IV, 50 mM, control 6.15 ± 1.08) it was 0.45 ± 0.64; in data set [1] (Example IV, 100 mM, control 6.15 ± 1.08) it was 1.75 ± 1.65; in data set [1] (setting [22]) it was 1.85 ± 0.61. Also, in data set [4], the “% REDUCTION IN IRRITATION INDEX” value worked out at 97%. Also, the “% REDUCTION LIPASE ACTIVITY” value was found to be 96% with lipase [2] (Example VI, 50 mM) and 98% in the data set with lipase [2] (Example VI, 100 mM). Further, the “LIPASE ACTIVITY” value in the data set with lipase [2] (setting [8]) is on record as 1,500; in the data set with lipase [2] (setting [9]), 750; in the data set with lipase [2] (setting [23]) it was 1,250.

Regarding `[O]=[Zn]` [ZnO, zinc oxide, reference compound], the solubility in water entry in data set [5] is reported as “almost totally insoluble”. In data set [4], the “% REDUCTION IN […]” value came out at 10%. The “LIPASE ACTIVITY” value with lipase [2] (setting [23]) was 33,000. For the same compound, the inhibition of lipase result in the data set with lipase [2] was “ineffective”. Also, the “concentration of solution the salt is capable of forming” value in data set [6] was 20 µM.

For the compound Zinc glycerolate, the solubility in water entry in data set [5] is “insoluble”.
